For 26 compounds, T/C results are on record in PubChem BioAssay AID330 (DTP/NCI, 2004).

“And” between values parts separate entries of the source, which are not always exact repeats. Identical values can stand only once. Inconclusive results and toxic doses are left out. Square brackets hold non-standard residues; d marks the D form. Peptide text beside a SMILES is read from it. Abu = CC[CH](N)C(=O)O

The test system of this assay is P388 leukemia ip, CD2F1 mice, survival T/C. Nature of the assay: NCI In Vivo Anticancer Drug Screen. Data for tumor model P388 Leukemia (intraperitoneal) in CD2F1 (CDF1) mice. The note with it: endpoint: median survival time, higher = longer survival. Put shortly:
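Mice carrying the transplanted tumor received test compound or vehicle. Survival was recorded in each group, and the value is the treated-group measurement divided by that of the vehicle-treated control group.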

Setting [1] is: dose: 50.0 mg/kg/injection, schedule: Q01DX009 (ip), vehicle: Klucel (hydroxypropylcellulose) (HPC).
The mark [2] stands for this setting: dose: 100.0 mg/kg/injection, schedule: Q01DX009 (ip), vehicle: Klucel (hydroxypropylcellulose) (HPC).
Where [3] appears, read: dose: 200.0 mg/kg/injection, schedule: Q01DX009 (ip), vehicle: Klucel (hydroxypropylcellulose) (HPC).
[4] abbreviates: dose: 50.0 mg/kg/injection, schedule: Q01DX005 (ip), vehicle: Klucel (hydroxypropylcellulose) (HPC).
The mark [5] stands for this setting: dose: 100.0 mg/kg/injection, schedule: Q01DX005 (ip), vehicle: Klucel (hydroxypropylcellulose) (HPC).
The mark [6] stands for this setting: dose: 200.0 mg/kg/injection, schedule: Q01DX005 (ip), vehicle: Klucel (hydroxypropylcellulose) (HPC).
Where [7] appears, read: dose: 50.0 mg/kg/injection, schedule: Q01DX009 (ip), vehicle: saline with Tween-80.
Setting [8] is: dose: 100.0 mg/kg/injection, schedule: Q01DX009 (ip), vehicle: saline with Tween-80.
Setting [9] is: dose: 200.0 mg/kg/injection, schedule: Q01DX009 (ip), vehicle: saline with Tween-80.
The mark [10] stands for this setting: dose: 60.0 mg/kg/injection, schedule: Q01DX005 (ip), vehicle: saline with Tween-80.
Setting [11] is: dose: 120.0 mg/kg/injection, schedule: Q01DX005 (ip), vehicle: saline with Tween-80.
Setting [12] is: dose: 240.0 mg/kg/injection, schedule: Q01DX005 (ip), vehicle: saline with Tween-80.
The mark [13] stands for this setting: dose: 100.0 mg/kg/injection, schedule: Q04DX003 (ip), vehicle: saline.
The mark [14] stands for this setting: dose: 200.0 mg/kg/injection, schedule: Q04DX003 (ip), vehicle: saline.
The mark [15] stands for this setting: dose: 400.0 mg/kg/injection, schedule: Q04DX003 (ip), vehicle: saline.
[16] abbreviates: dose: 12.5 mg/kg/injection, schedule: Q01DX005 (ip), vehicle: Klucel (hydroxypropylcellulose) (HPC).
Setting [17] is: dose: 25.0 mg/kg/injection, schedule: Q01DX005 (ip), vehicle: Klucel (hydroxypropylcellulose) (HPC).
The mark [18] stands for this setting: dose: 50.0 mg/kg/injection, schedule: Q01DX009 (ip), vehicle: saline.
[19] abbreviates: dose: 100.0 mg/kg/injection, schedule: Q01DX009 (ip), vehicle: saline.
[20] abbreviates: dose: 200.0 mg/kg/injection, schedule: Q01DX009 (ip), vehicle: saline.
Where [21] appears, read: dose: 60.0 mg/kg/injection, schedule: Q01DX005 (ip), vehicle: Klucel (hydroxypropylcellulose) (HPC).
Setting [22] is: dose: 120.0 mg/kg/injection, schedule: Q01DX005 (ip), vehicle: Klucel (hydroxypropylcellulose) (HPC).
[23] abbreviates: dose: 240.0 mg/kg/injection, schedule: Q01DX005 (ip), vehicle: Klucel (hydroxypropylcellulose) (HPC).
[24] abbreviates: dose: 25.0 mg/kg/injection, schedule: Q01DX009 (ip), vehicle: saline with Tween-80.

Consider `CC1(C)OCC(C(OS(C)(=O)=O)C2OC(C)(C)OC2COS(C)(=O)=O)O1` (configuration not stated), for which the T/C runs as follows: under setting [1], 91 % of control; under setting [2], 97 % of control; under setting [3], 99 % of control.

Consider `Cc1ccc(S(=O)(=O)Nc2nnc(-c3coc4ccc(C)cc4c3=O)s2)cc1`, for which the T/C was 89 % of control (dose: 50.0 mg/kg/injection, schedule: Q01DX005 (ip), vehicle: saline with Tween-80) and 88 % of control (dose: 100.0 mg/kg/injection, schedule: Q01DX005 (ip), vehicle: saline with Tween-80).

Regarding `c1ccc2nc(N3CCCCC3)c(N3CCCCCC3)nc2c1`, the T/C was 97 % of control under setting [4], 100 % of control under setting [5] and 99 % of control under setting [6].

In the case of `C=C(Cl)CSc1ncnc2nc[nH]c12`, the T/C is 100 % of control under setting [7]; 95 % of control (dose: 50.0 mg/kg/injection, schedule: Q04DX003 (ip), vehicle: saline with Tween-80); 109 % of control under setting [8]; 91 % of control (dose: 100.0 mg/kg/injection, schedule: Q04DX003 (ip), vehicle: saline with Tween-80); 109 % of control under setting [9]; 91 % of control (dose: 200.0 mg/kg/injection, schedule: Q04DX003 (ip), vehicle: saline with Tween-80).

As to `Nc1ncc2c(n1)-c1ccccc1OC2`, the T/C was 92 % of control under setting [10], 103 % of control under setting [11] and 95 % of control under setting [12].

With `COc1cc2c(cc1O)C(=O)c1[nH]c3ccccc3c1CC2`, the T/C is 107 % of control under setting [13], 107 % of control under setting [14] and 101 % of control under setting [15].

On to `COC(=O)[C@H]1[C@H]2C[C@@H]3c4[nH]c5cc(OC)ccc5c4CCN3C[C@H]2C[C@@H](OC(=O)c2cccc(N(C)C)c2)[C@@H]1OC`, for which the T/C under setting [16] was 95 % of control, the T/C under setting [17] was 94 % of control, the T/C under setting [4] is 116 % of control and the T/C under setting [5] is 86 % of control.

In the case of `Clc1ccc(-c2nc(CSc3ccccn3)cs2)cc1`, the T/C is 102 % of control under setting [18], 109 % of control under setting [19] and 105 % of control under setting [20].

With `COC1OCCC(n2c(C)cc3c(N)ncnc32)C1O` (configuration not stated), the T/C under setting [4] is 101 % of control and 102 % of control; the T/C under setting [21] was 100 % of control; the T/C under setting [5] is 100 % of control and 103 % of control; the T/C under setting [22] is 103 % of control; the T/C under setting [6] is 93 % of control; the T/C under setting [23] was 96 % of control.

As for `Cc1ncc(C(=O)c2cc(Cl)ccc2O)cn1`, the T/C is 100 % of control under setting [13], 110 % of control under setting [14] and 100 % of control under setting [15].

For the compound `CCCCc1ccc(-n2c(C)nc3[nH]cc(C)c3c2=N)cc1`, the T/C under setting [4] is 96 % of control, the T/C under setting [5] was 102 % of control and the T/C under setting [6] is 97 % of control.

On to `COc1cc(NS(C)(=O)=O)ccc1Nc1c2ccc(N(C)C)cc2nc2cc(N(C)C)ccc12`, for which the T/C (dose: 7.5 mg/kg/injection, schedule: Q01DX005 (ip), vehicle: Klucel (hydroxypropylcellulose) (HPC)) is 162 % of control; the T/C (dose: 15.0 mg/kg/injection, schedule: Q01DX005 (ip), vehicle: Klucel (hydroxypropylcellulose) (HPC)) was 168 % of control and 173 % of control; the T/C (dose: 30.0 mg/kg/injection, schedule: Q01DX005 (ip), vehicle: Klucel (hydroxypropylcellulose) (HPC)) is 174 % of control and 182 % of control; the T/C under setting [21] was 98 % of control and 86 % of control.

Regarding `CCC[CH2][Sn]1([CH2]CCC)[S]CC[N]1S(=O)(=O)c1ccc(C)cc1`, the T/C is 114 % of control (dose: 1.0 mg/kg/injection, schedule: Q01DX009 (ip), vehicle: gum acacia); 106 % of control (dose: 1.5 mg/kg/injection, schedule: Q01DX009 (ip), vehicle: gum acacia); 120 % of control (dose: 2.25 mg/kg/injection, schedule: Q01DX009 (ip), vehicle: gum acacia).

As to `O=C(O)CC(=O)c1ccccc1`, the T/C is, setting by setting: under setting [24], 102 % of control; under setting [7], 105 % of control; under setting [9], 89 % of control.

As for `CCC(N)C(=O)NC(C(N)=O)C(C)C` (configuration not stated) (H-[Abu]-Val-NH2; configuration not given here), the T/C is, setting by setting: (dose: 50.0 mg/kg/injection, schedule: Q01DX005 (ip), vehicle: saline) 102 % of control; (dose: 100.0 mg/kg/injection, schedule: Q01DX005 (ip), vehicle: saline) 101 % of control; (dose: 200.0 mg/kg/injection, schedule: Q01DX005 (ip), vehicle: saline) 104 % of control.

Consider `O=S1(=O)C(c2cccc(F)c2)=C(O)c2cc3ccccc3nc21`, for which the T/C is 104 % of control under setting [7], 97 % of control under setting [8] and 104 % of control under setting [9].

Turning to `O=c1[nH]nc(NC2Nc3ccccc3N2)c2ccccc12`, the T/C was 97 % of control under setting [10], 96 % of control under setting [11] and 96 % of control under setting [12].

Consider `COc1ccc2cc3cnccc3cc2c1OC`, for which the T/C (dose: 12.5 mg/kg/injection, schedule: Q01DX009 (ip), vehicle: water) was 99 % of control; the T/C (dose: 25.0 mg/kg/injection, schedule: Q01DX009 (ip), vehicle: water) is 97 % of control; the T/C (dose: 50.0 mg/kg/injection, schedule: Q01DX009 (ip), vehicle: water) was 94 % of control; the T/C (dose: 100.0 mg/kg/injection, schedule: Q01DX009 (ip), vehicle: water) was 102 % of control; the T/C (dose: 200.0 mg/kg/injection, schedule: Q01DX009 (ip), vehicle: water) was 96 % of control.

Consider `O=C1C2CCCN2C(=O)N1c1ccccc1` (configuration not stated), for which the T/C is 105 % of control under setting [21], 97 % of control under setting [22] and 96 % of control under setting [23].

`COCCCN1C(=O)/C(=C/c2ccccn2)SC1=S`: the T/C is 97 % of control under setting [18], 96 % of control under setting [19] and 96 % of control under setting [20].

For the compound `O=C(CCl)N1CCN(C/C=C/c2ccccc2)CC1`, the T/C is 103 % of control (dose: 60.0 mg/kg/injection, schedule: Q01DX005 (ip), vehicle: saline) and 105 % of control (dose: 120.0 mg/kg/injection, schedule: Q01DX005 (ip), vehicle: saline).

Regarding `COC1/C=C/OC2(C)Oc3c(C)c(O)c4c(O)c(c(/C=N/N5CC(C)N(Cc6ccccc6)C(C)C5)c(O)c4c3C2=O)NC(=O)C(C)=C/C=C/C(C)C(O)C(C)C(O)C(C)C(OC(C)=O)C1C` (configuration not stated), the T/C by setting is: (dose: 12.5 mg/kg/injection, schedule: Q01DX009 (ip), vehicle: saline with Tween-80) 113 % of control; under setting [24], 109 % of control; under setting [7], 118 % of control and 124 % of control; under setting [8], 114 % of control.

Take `COC(=O)c1cc2cc3ccccc3cc2cc1C(=O)OC`: the T/C runs as follows: (dose: 15.0 mg/kg/injection, schedule: Q01DX005 (ip), vehicle: saline with Tween-80) 100 % of control; (dose: 30.0 mg/kg/injection, schedule: Q01DX005 (ip), vehicle: saline with Tween-80) 101 % of control; under setting [10], 102 % of control.

As for `N#CC1C(=O)NC(=S)NC1c1ccccc1` (configuration not stated), the T/C under setting [1] is 95 % of control, the T/C under setting [2] is 101 % of control and the T/C under setting [3] is 98 % of control.

As for `CC(C)=NN/C=N/S(C)(=O)=O`, the T/C (dose: 100.0 mg/kg/injection, schedule: Q04DX002 (ip), vehicle: saline) is 105 % of control; the T/C (dose: 200.0 mg/kg/injection, schedule: Q04DX002 (ip), vehicle: saline) is 104 % of control; the T/C (dose: 400.0 mg/kg/injection, schedule: Q04DX002 (ip), vehicle: saline) is 104 % of control.

Take `C=C1C(=O)OC2/C=C(CO)/C=C\C3OC3(C)CC(OC(=O)/C(=C/C)CO)C12` (configuration not stated): the T/C by setting is: under setting [16], 106 % of control and 97 % of control; under setting [17], 99 % of control and 103 % of control and 116 % of control; under setting [4], 109 % of control and 111 % of control.
